Measured values taken from patent US20140273139A1, “Direct Fermentation of Biomass to Fuel Precursors” (Innovative Metabolism Inc., priority 2013, published 2014).

Columns and labels:
P. chrysosporium [1] = assay: Submerged liquid fermentation in the presence of air and gaseous mitochondrial inhibitor (GC-MS of headspace); format: cell-based, Phanerochaete chrysosporium; conditions: aerobic culture, NO target concentration 1 μM, 2% glucose, 37° C.
Method: In this experiment P. chrysosporium was grown from conidiospores in submerged liquid culture. The growth medium was Highley's Basal salts [Wymelenberg, A. V., et al., The Phanerochaete chrysosporium secretome: database predictions and initial mass spectrometry peptide identifications in cellulose-grown medium. J Biotechnol, 2005. 118(1): p. 17-34.] supplemented with 0.1% yeast extract (YE) and 2% glucose. Conidiospores were inoculated in liquid medium in 3 neck flasks. The temperature was maintained at 37° C. The cultures were mixed using magnetic stir bars and gasses (air, nitrogen, and air supplemented with nitric oxide (NO)) were bubbled through the medium using stainless steel needles. Fungi were grown: 1) aerobically; 2) anaerobically; and 3) aerobically with NO delivered to a target concentration of 1 μM. Cultures were sampled daily and analyzed using GC-MS (FIG. 3). P. chrysosporium grew rapidly forming large, encapsulated masses of material.
The identity of the ethanol peak was confirmed by MS analysis. Samples were transferred to glass septum vials and heated to 60° C. A gas-tight syringe was used to sample 50 μl from the headspace. Samples were analyzed on a 6890N GC system with a 5975 Mass Selective Detector (Agilent) using a PH Innowax column.

[2] = system: P. chrysosporium and K. marxianus; assay: Solid-state fermentation of corn stover by consortium in the presence of carbon monoxide; format: cell-based, Phanerochaete chrysosporium / Kluyveromyces marxianus; conditions: 90% CO and 10% air, first 27 days
Method: In this example, solvent-producing fermentation was initiated by introduction of a mix of air and CO, a competitive inhibitor of cytochrome c oxidase. Corn stover was prepared as described in Example 7. A mixture of P. chrysosporium conidiospores and mycelia harvested from agar medium, and 1 ml of K. marxianus from an overnight culture in YPD broth were added to the stover. The mixture was transferred to the rotating drum of the solid-state bioreactor under sterile conditions. The bioreactor was sealed and placed in a 44° C. incubator.
Growth was established under aerobic conditions (10 ml/min of air was flowed through the bioreactor for 17 hours). Fermentation was initiated by flowing a mixture comprised of 90% CO and 10% air through the bioreactor. During the first 27 days productivity peaked at 2.3×10^−5 g solvent/hr/g biomass remaining and yield for the period was 5.7% of biomass consumed (FIG. 8).

P. chrysosporium [3] = assay: Solid-state fermentation of corn stover by P. chrysosporium in the presence of carbon monoxide; format: cell-based, Phanerochaete chrysosporium; conditions: 10% air and 90% CO, through Day 44
Method: In this example solvent fermentation was initiated by introduction of a mix of 10% air and 90% CO. Corn stover was prepared as described in Example 7. P. chrysosporium conidiospores and mycelia harvested from agar medium were added to the stover and the mixture was transferred to the rotating drum of the solid-state bioreactor under sterile conditions. The bioreactor was sealed and placed in a 44° C. incubator. The volume of gas flow remained constant at 10 ml/min for the entire experiment.
The fermentor was run aerobically for 45 hours to establish growth. Between hour 45 and Day 44 a gas mix comprised of 10% air and 90% CO was flowed through the system. Fungal metabolic activity was restored by flowing air through the system from Day 51-55. From Day 57-65 the fermentation was run anaerobically in the absence of CO. Fungal metabolic activity was again restored by aerobic growth from Day 65-68, and then anaerobic fermentation was continued from Day 68-82.

P. chrysosporium [4] = assay: Submerged liquid fermentation under reduced oxygen with the mitochondrial inhibitor rotenone (GC-MS, standard curves); format: cell-based, Phanerochaete chrysosporium
Method: In this experiment P. chrysosporium was grown from conidiospores in submerged liquid culture. The growth medium was Highley's Basal salts [Wymelenberg, A. V., et al., The Phanerochaete chrysosporium secretome: database predictions and initial mass spectrometry peptide identifications in cellulose-grown medium. J Biotechnol, 2005. 118(1): p. 17-34.] supplemented with 0.1% yeast extract (YE) and 2% glucose. Conidiospores were inoculated in 50 ml of liquid medium in a 250 ml Erlenmyer flask which was then capped with a 3-piece fermentation lock to prevent evaporation of volatile products and to allow the culture to incubate in a reduced oxygen environment. The culture was incubated statically.
A large mass of fungus was produced and remained suspended near the top of the medium. Samples were collected, transferred to glass septum vials and heated to 60° C. Samples were analyzed on a 6890N GC system with a 5975 Mass Selective Detector (Agilent) using a PH Innowax column. […] Standard curves were performed for each solvent. The concentrations in the fermentation broth were determined to be 0.74 mM for acetone, 1.8 mM for isopropanol, and 1.9 mM for ethanol. This experiment provided the first indication that P. chrysosporium was capable of fermenting sugars to acetone and isopropanol.

[5] = rotenone-treated, reduced oxygen, static culture

Compound: nitric oxide
- ethanol production by the culture (P. chrysosporium [1]): appeared to enable ethanol production in the presence of dissolved oxygen

Compound: [C-]#[O+] [CO, carbon monoxide]
- solvents produced [2]: Ethanol was the only solvent produced in significant quantities
- peak productivity ([2]; 44° C.): 2.3×10^−5 g solvent/hr/g biomass remaining
- solvent yield ([2]; 44° C.): 5.7 % of biomass consumed
- acetone share of solvent mix (P. chrysosporium [3]): 28%
- ethanol share of solvent mix (P. chrysosporium [3]): 72%
- isopropanol share of solvent mix (P. chrysosporium [3]): only trace amounts

Compound: C=C(C)[C@H]1Cc2c(ccc3c2O[C@@H]2COc4cc(OC)c(OC)cc4[C@@H]2C3=O)O1 [Rotenone, rotenone]
- solvents produced in the presence of the inhibitor (P. chrysosporium [4]; liquid culture, oxygen-limited conditions, glucose): production of acetone, isopropanol and ethanol
- acetone concentration in the fermentation broth (P. chrysosporium [4]; [5]): 0.74 mM
- ethanol concentration in the fermentation broth (P. chrysosporium [4]; [5]): 1.9 mM
- isopropanol concentration in the fermentation broth (P. chrysosporium [4]; [5]): 1.8 mM
